# PubChem BioAssay (NCI)
#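 A five-concentration, 48-hour dose response in 96-well plates underlies each endpoint, interpolated linearly between surrounding concentrations. TGI marks complete inhibition of growth.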
# How the values were obtained:
# Experiment in all cases: NCI tumour cell line growth inhibition, 48 h
# 786-0 renal = tested on: 786-0 renal
# A498 renal = tested on: A498 renal
# A549 NSCLC = tested on: A549 NSCLC
# ACHN renal = tested on: ACHN renal
# BT-549 breast = tested on: BT-549 breast
# CAKI-1 renal = tested on: CAKI-1 renal
# CCRF-CEM leukemia = tested on: CCRF-CEM leukemia
# COLO 205 colon = tested on: COLO 205 colon
# DU-145 prostate = tested on: DU-145 prostate
# EKVX NSCLC = tested on: EKVX NSCLC
# HCC-2998 colon = tested on: HCC-2998 colon
# HCT-116 colon = tested on: HCT-116 colon
# HCT-15 colon = tested on: HCT-15 colon
# HL-60(TB) leukemia = tested on: HL-60(TB) leukemia
# HOP-62 NSCLC = tested on: HOP-62 NSCLC
# HOP-92 NSCLC = tested on: HOP-92 NSCLC
# HS 578T breast = tested on: HS 578T breast
# HT29 colon = tested on: HT29 colon
# IGROV1 ovarian = tested on: IGROV1 ovarian
# K-562 leukemia = tested on: K-562 leukemia
# KM12 colon = tested on: KM12 colon
# LOX IMVI melanoma = tested on: LOX IMVI melanoma
# M14 melanoma = tested on: M14 melanoma
# MALME-3M melanoma = tested on: MALME-3M melanoma
# MCF7 breast = tested on: MCF7 breast
# MDA-MB-231 breast = tested on: MDA-MB-231 breast
# MDA-MB-435 = tested on: MDA-MB-435
# MDA-N = tested on: MDA-N
# MOLT-4 leukemia = tested on: MOLT-4 leukemia
# NCI-H226 lung = tested on: NCI-H226 lung
# NCI-H23 lung = tested on: NCI-H23 lung
# NCI-H460 lung = tested on: NCI-H460 lung
# NCI-H522 lung = tested on: NCI-H522 lung
# NCI/ADR-RES ovarian = tested on: NCI/ADR-RES ovarian
# OVCAR-3 ovarian = tested on: OVCAR-3 ovarian
# OVCAR-4 ovarian = tested on: OVCAR-4 ovarian
# OVCAR-5 ovarian = tested on: OVCAR-5 ovarian
# OVCAR-8 ovarian = tested on: OVCAR-8 ovarian
# PC-3 prostate = tested on: PC-3 prostate
# RPMI-8226 leukemia = tested on: RPMI-8226 leukemia
# RXF 393 renal = tested on: RXF 393 renal
# SF-268 CNS = tested on: SF-268 CNS
# SF-295 CNS = tested on: SF-295 CNS
# SF-539 CNS = tested on: SF-539 CNS
# SK-MEL-2 melanoma = tested on: SK-MEL-2 melanoma
# SK-MEL-28 melanoma = tested on: SK-MEL-28 melanoma
# SK-MEL-5 melanoma = tested on: SK-MEL-5 melanoma
# SK-OV-3 ovarian = tested on: SK-OV-3 ovarian
# SN12C renal = tested on: SN12C renal
# SNB-19 CNS = tested on: SNB-19 CNS
# SNB-75 CNS = tested on: SNB-75 CNS
# SR leukemia = tested on: SR leukemia
# SW-620 colon = tested on: SW-620 colon
# T-47D breast = tested on: T-47D breast
# TK-10 renal = tested on: TK-10 renal
# U251 CNS = tested on: U251 CNS
# UACC-257 melanoma = tested on: UACC-257 melanoma
# UACC-62 melanoma = tested on: UACC-62 melanoma
# UO-31 renal = tested on: UO-31 renal
structure (smiles),measurement,setting,value
COc1cccc2c(=O)c3c(n(C)c12)OC(C(C)C)C3 (stereo not drawn),TGI,786-0 renal,> 100 µM
same,TGI,A498 renal,> 100 µM
same,TGI,A549 NSCLC,> 100 µM
same,TGI,ACHN renal,> 100 µM
same,TGI,BT-549 breast,> 100 µM
same,TGI,CAKI-1 renal,> 100 µM
same,TGI,CCRF-CEM leukemia,> 100 µM
same,TGI,COLO 205 colon,> 100 µM
same,TGI,DU-145 prostate,> 100 µM
same,TGI,EKVX NSCLC,> 100 µM
same,TGI,HCC-2998 colon,> 100 µM
same,TGI,HCT-116 colon,> 100 µM
same,TGI,HCT-15 colon,> 100 µM
same,TGI,HL-60(TB) leukemia,> 100 µM
same,TGI,HOP-62 NSCLC,> 100 µM
same,TGI,HOP-92 NSCLC,> 100 µM
same,TGI,HS 578T breast,> 100 µM
same,TGI,HT29 colon,> 100 µM
same,TGI,IGROV1 ovarian,> 100 µM
same,TGI,K-562 leukemia,86.2 µM
same,TGI,KM12 colon,> 100 µM
same,TGI,LOX IMVI melanoma,> 100 µM
same,TGI,M14 melanoma,> 100 µM
same,TGI,MALME-3M melanoma,> 100 µM
same,TGI,MCF7 breast,> 100 µM
same,TGI,MDA-MB-231 breast,> 100 µM
same,TGI,MDA-MB-435,> 100 µM
same,TGI,MDA-N,> 100 µM
same,TGI,MOLT-4 leukemia,> 100 µM
same,TGI,NCI-H226 lung,> 100 µM
same,TGI,NCI-H23 lung,> 100 µM
same,TGI,NCI-H460 lung,> 100 µM
same,TGI,NCI-H522 lung,> 100 µM
same,TGI,NCI/ADR-RES ovarian,> 100 µM
same,TGI,OVCAR-3 ovarian,> 100 µM
same,TGI,OVCAR-4 ovarian,89.2 µM
same,TGI,OVCAR-5 ovarian,> 100 µM
same,TGI,OVCAR-8 ovarian,> 100 µM
same,TGI,PC-3 prostate,> 100 µM
same,TGI,RPMI-8226 leukemia,> 100 µM
same,TGI,RXF 393 renal,> 100 µM
same,TGI,SF-268 CNS,> 100 µM
same,TGI,SF-295 CNS,> 100 µM
same,TGI,SF-539 CNS,> 100 µM
same,TGI,SK-MEL-2 melanoma,> 100 µM
same,TGI,SK-MEL-28 melanoma,> 100 µM
same,TGI,SK-MEL-5 melanoma,> 100 µM
same,TGI,SK-OV-3 ovarian,> 100 µM
same,TGI,SN12C renal,> 100 µM
same,TGI,SNB-19 CNS,> 100 µM
same,TGI,SNB-75 CNS,> 100 µM
same,TGI,SR leukemia,> 100 µM
same,TGI,SW-620 colon,> 100 µM
same,TGI,T-47D breast,> 100 µM
same,TGI,TK-10 renal,> 100 µM
same,TGI,U251 CNS,> 100 µM
same,TGI,UACC-257 melanoma,> 100 µM
same,TGI,UACC-62 melanoma,> 100 µM
same,TGI,UO-31 renal,> 100 µM
CCN(CC)CCCNc1[nH]ncc2cc3c(nc4ccc(OC)cc43)c(C)c12,TGI,786-0 renal,15.4 µM
same,TGI,A498 renal,30.7 µM
same,TGI,A549 NSCLC,22.2 µM
same,TGI,ACHN renal,20.9 µM
same,TGI,BT-549 breast,30.9 µM
same,TGI,CAKI-1 renal,24.7 µM
same,TGI,CCRF-CEM leukemia,16.5 µM
same,TGI,COLO 205 colon,21.2 µM
same,TGI,DU-145 prostate,15.9 µM
same,TGI,EKVX NSCLC,31.4 µM
same,TGI,HCC-2998 colon,18.8 µM
same,TGI,HCT-116 colon,13 µM
same,TGI,HCT-15 colon,41.3 µM
same,TGI,HL-60(TB) leukemia,0.0166 µM
same,TGI,HOP-62 NSCLC,16.4 µM
same,TGI,HOP-92 NSCLC,29.8 µM
same,TGI,HS 578T breast,28.5 µM
same,TGI,HT29 colon,16.2 µM
same,TGI,IGROV1 ovarian,19.5 µM
same,TGI,K-562 leukemia,16.3 µM
same,TGI,KM12 colon,15.7 µM
same,TGI,LOX IMVI melanoma,15.8 µM
same,TGI,M14 melanoma,25.6 µM
same,TGI,MALME-3M melanoma,28.3 µM
same,TGI,MCF7 breast,16.6 µM
same,TGI,MDA-MB-231 breast,21.2 µM
same,TGI,MDA-MB-435,23.1 µM
same,TGI,MDA-N,22.3 µM
same,TGI,MOLT-4 leukemia,10.9 µM
same,TGI,NCI-H226 lung,22.6 µM
same,TGI,NCI-H23 lung,24.6 µM
same,TGI,NCI-H460 lung,17 µM
same,TGI,NCI-H522 lung,17.4 µM
same,TGI,NCI/ADR-RES ovarian,> 100 µM
same,TGI,OVCAR-3 ovarian,19.1 µM
same,TGI,OVCAR-4 ovarian,13.8 µM
same,TGI,OVCAR-5 ovarian,24.8 µM
same,TGI,OVCAR-8 ovarian,18.9 µM
same,TGI,PC-3 prostate,16.5 µM
same,TGI,RPMI-8226 leukemia,46.8 µM
same,TGI,RXF 393 renal,17.7 µM
same,TGI,SF-268 CNS,> 48.1 µM
same,TGI,SF-295 CNS,25.7 µM
same,TGI,SF-539 CNS,15.2 µM
same,TGI,SK-MEL-2 melanoma,33.9 µM
same,TGI,SK-MEL-28 melanoma,30.8 µM
same,TGI,SK-MEL-5 melanoma,29.4 µM
same,TGI,SK-OV-3 ovarian,22.3 µM
same,TGI,SN12C renal,18.7 µM
same,TGI,SNB-19 CNS,18 µM
same,TGI,SNB-75 CNS,23 µM
same,TGI,SR leukemia,33.1 µM
same,TGI,SW-620 colon,19.4 µM
same,TGI,T-47D breast,26.5 µM
same,TGI,TK-10 renal,28.8 µM
same,TGI,U251 CNS,16 µM
same,TGI,UACC-257 melanoma,33.7 µM
same,TGI,UACC-62 melanoma,35.8 µM
same,TGI,UO-31 renal,23.8 µM
